Assays:
Assay type in all cases: cell-based
[1] = biological target: AXL (phospho-AXL, Gas6-stimulated A-172 glioblastoma cells) (Homo sapiens (Human), UniProt P30530); experiment: AXL autophosphorylation ELISA in A-172 cells (Example E); conditions: cellular activity; AXL autophosphorylation ELISA in A-172 cells; read-out: Axl IC50
Summary of the method: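 Phospho-AXL was measured by ELISA in lysates of Gas6-stimulated A-172 cells, starved 24 h in serum-free medium and exposed 1 h to an 8-point compound dilution at 0.3% DMSO.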

[2] = biological target: Met (phospho-Met, HGF-stimulated PC-3 prostate cancer cells) (Homo sapiens (Human), UniProt P08581); experiment: Met autophosphorylation ELISA in PC-3 cells (Example F); conditions: cellular activity; Met autophosphorylation ELISA in PC-3 cells; read-out: c-Met IC50
Summary of the method: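 IC50 values derive from a 4-parameter logistic fit of phospho-Met (panTyr) sandwich ELISA signals in PC-3 lysates, scaled between DMSO and reference-inhibitor wells. Cells, starved 3 h in serum-free medium, had 1 h compound exposure (8 doses, 0.3% DMSO) before 10 min stimulation with 100 ng/mL HGF.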

[3] = biological target: KDR (phospho-KDR, VEGF165-stimulated HUVEC cells) (Homo sapiens (Human), UniProt P35968); experiment: KDR autophosphorylation ELISA in HUVEC cells (Example G); conditions: cellular activity; KDR autophosphorylation ELISA in HUVEC cells
Summary of the method: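 Read-out is phospho-KDR measured by ELISA in lysates of VEGF165-stimulated (100 ng/mL, 5 min) HUVEC that were serum-starved 24 h and then pre-exposed 1 h to compound across 8 doses in 0.3% DMSO. Unstimulated lysates defined 0% and stimulated vehicle lysates 100% activity; IC50 values come from 4-parameter logistic regression.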

[4] = biological target: Mer (phospho-Mer, MERTK-transfected 293A cells) (Homo sapiens (Human), UniProt Q12866); experiment: Mer autophosphorylation ELISA in transient transfected 293A cells (Example H); conditions: cellular activity; Mer autophosphorylation ELISA in transient transfected 293A cells
Summary of the method: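 IC50 from phospho-Mer ELISA of MERTK-transfected 293A cell lysates after 1 h treatment with serially diluted compound in serum-free medium.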

KDR (phospho-KDR, VEGF165-stimulated HUVEC cells), sequence (P35968 20-1356): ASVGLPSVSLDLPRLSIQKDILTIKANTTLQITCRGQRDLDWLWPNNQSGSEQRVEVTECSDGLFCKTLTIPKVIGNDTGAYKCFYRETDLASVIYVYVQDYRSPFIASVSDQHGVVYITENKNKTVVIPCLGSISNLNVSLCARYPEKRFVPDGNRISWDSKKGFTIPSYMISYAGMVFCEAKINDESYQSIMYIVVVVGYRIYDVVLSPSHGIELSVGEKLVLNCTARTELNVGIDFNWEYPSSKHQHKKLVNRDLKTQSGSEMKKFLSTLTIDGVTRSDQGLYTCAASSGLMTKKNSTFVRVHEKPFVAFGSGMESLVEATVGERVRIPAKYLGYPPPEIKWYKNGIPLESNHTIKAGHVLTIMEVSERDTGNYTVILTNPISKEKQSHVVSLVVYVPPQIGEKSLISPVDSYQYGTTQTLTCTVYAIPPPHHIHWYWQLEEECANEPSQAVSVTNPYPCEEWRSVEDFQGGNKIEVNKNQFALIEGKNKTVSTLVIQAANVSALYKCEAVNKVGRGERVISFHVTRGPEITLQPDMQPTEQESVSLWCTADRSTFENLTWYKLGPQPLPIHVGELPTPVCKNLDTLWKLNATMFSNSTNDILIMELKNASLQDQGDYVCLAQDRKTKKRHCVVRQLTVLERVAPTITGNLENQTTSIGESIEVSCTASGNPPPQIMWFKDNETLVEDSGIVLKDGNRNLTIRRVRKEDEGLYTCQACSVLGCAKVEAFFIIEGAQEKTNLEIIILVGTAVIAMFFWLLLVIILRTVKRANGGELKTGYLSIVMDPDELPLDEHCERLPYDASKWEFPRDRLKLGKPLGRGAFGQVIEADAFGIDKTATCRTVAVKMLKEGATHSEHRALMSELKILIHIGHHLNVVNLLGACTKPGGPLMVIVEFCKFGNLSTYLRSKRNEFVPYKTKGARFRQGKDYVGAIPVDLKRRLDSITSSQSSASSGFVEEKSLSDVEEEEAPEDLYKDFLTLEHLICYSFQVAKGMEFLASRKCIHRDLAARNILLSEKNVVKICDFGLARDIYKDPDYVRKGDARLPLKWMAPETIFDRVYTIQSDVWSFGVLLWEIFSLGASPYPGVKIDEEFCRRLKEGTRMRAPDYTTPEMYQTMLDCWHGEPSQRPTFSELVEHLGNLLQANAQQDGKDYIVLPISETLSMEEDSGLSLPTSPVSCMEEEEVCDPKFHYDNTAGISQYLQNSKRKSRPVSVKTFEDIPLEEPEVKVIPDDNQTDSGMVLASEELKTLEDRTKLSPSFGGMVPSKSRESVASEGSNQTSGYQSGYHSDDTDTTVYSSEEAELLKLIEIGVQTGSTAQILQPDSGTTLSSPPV
Met (phospho-Met, HGF-stimulated PC-3 prostate cancer cells), sequence (P08581 25-1390): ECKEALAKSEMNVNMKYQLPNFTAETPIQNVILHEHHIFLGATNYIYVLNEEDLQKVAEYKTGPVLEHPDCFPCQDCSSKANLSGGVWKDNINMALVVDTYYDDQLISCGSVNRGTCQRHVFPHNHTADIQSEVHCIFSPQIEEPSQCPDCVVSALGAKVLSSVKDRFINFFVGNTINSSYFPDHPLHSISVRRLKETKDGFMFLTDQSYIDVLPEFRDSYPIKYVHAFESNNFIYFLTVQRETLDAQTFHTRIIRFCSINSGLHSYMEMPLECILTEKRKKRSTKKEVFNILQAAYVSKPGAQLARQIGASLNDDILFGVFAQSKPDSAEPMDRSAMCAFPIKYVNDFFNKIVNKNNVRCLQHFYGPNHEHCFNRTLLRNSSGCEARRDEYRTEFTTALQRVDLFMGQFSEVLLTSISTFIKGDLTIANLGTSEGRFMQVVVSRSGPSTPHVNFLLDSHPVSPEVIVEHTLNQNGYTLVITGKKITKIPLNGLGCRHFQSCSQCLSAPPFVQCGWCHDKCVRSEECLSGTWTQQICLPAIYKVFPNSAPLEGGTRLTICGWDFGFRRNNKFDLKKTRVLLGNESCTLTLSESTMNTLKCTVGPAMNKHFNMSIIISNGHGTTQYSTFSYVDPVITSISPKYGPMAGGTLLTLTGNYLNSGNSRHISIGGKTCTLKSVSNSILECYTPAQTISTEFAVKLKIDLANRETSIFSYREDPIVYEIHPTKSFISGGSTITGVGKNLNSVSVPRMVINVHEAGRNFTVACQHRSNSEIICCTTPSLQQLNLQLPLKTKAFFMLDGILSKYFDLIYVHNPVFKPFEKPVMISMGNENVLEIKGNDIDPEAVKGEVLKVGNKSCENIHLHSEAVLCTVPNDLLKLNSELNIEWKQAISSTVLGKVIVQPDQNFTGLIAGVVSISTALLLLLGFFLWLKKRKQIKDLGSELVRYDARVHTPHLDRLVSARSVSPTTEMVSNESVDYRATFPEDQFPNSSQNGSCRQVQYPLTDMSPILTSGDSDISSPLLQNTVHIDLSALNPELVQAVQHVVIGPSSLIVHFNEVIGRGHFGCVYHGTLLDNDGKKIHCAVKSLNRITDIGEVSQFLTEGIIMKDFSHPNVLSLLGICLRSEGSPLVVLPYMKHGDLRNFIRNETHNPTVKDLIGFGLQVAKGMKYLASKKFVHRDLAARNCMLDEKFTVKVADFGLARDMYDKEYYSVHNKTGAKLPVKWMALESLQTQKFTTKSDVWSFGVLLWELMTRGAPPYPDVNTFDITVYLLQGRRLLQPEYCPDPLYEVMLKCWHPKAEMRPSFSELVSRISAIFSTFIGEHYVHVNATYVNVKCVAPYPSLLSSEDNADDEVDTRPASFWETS
AXL (phospho-AXL, Gas6-stimulated A-172 glioblastoma cells), sequence (P30530 26-894): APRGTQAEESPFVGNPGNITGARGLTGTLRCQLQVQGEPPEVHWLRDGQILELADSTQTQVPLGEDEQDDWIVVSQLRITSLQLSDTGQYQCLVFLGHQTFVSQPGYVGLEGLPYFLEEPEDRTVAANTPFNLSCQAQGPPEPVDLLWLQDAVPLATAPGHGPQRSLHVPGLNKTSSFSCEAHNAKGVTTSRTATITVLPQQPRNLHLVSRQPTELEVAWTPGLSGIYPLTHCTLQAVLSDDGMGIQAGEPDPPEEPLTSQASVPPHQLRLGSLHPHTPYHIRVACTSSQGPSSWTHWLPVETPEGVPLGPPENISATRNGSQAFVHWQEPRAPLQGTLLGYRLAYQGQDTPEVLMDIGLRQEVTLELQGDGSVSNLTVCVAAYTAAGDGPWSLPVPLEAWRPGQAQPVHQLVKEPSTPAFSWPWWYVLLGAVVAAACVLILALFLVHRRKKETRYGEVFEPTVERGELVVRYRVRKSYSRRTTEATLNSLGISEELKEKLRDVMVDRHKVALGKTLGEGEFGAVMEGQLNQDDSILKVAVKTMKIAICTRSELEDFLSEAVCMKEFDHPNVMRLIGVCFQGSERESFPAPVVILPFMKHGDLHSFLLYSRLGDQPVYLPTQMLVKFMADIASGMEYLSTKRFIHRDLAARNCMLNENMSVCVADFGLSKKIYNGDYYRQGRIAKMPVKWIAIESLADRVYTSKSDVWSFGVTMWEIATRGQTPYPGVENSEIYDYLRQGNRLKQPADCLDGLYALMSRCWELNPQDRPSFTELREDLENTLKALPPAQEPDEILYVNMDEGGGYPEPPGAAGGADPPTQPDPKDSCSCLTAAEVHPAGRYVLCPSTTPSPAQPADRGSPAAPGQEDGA
Mer (phospho-Mer, MERTK-transfected 293A cells), sequence (Q12866 21-999): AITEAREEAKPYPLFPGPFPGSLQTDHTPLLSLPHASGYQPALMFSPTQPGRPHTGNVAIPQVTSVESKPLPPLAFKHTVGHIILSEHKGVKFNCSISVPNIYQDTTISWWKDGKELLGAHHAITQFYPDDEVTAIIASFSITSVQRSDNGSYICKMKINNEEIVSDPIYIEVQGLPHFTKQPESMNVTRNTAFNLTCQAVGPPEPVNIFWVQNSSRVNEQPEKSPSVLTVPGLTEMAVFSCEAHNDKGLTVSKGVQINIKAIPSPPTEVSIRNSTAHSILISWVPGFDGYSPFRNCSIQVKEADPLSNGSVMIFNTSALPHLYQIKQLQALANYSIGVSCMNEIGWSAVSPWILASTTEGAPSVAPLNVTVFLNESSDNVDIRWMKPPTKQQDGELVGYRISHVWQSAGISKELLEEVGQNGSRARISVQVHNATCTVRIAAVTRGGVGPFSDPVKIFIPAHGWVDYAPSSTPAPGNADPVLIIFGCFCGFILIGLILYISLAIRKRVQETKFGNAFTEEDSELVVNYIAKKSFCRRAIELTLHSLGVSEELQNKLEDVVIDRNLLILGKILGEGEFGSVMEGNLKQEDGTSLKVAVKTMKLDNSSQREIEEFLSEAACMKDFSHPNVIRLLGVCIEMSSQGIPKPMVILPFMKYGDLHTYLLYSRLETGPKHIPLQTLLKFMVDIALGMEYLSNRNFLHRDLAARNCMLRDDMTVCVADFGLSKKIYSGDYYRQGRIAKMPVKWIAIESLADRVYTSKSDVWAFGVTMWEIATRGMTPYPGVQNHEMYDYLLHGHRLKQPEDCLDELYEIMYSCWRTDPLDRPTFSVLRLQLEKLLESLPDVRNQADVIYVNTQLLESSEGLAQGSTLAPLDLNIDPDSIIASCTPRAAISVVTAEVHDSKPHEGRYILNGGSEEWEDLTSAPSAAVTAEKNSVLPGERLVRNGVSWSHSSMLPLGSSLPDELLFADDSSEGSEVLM

Compound	IC50 [1]	IC50 [2]	IC50 [3]	IC50 [4]
C=C(C)c1cnc2c(Oc3ccc(NC(=O)c4nn(C)c(C)c(-c5ccc(F)cc5)c4=O)cc3F)ccnc2c1 [Compound 477, 5-(4-fluorophenyl)-N-[3-fluoro-4-[(7-prop-1-en-2-yl-1,5-naphthyridin-4-yl)oxy]phenyl]-1,6-dimethyl-4-oxopyridazine-3-carboxamide]	< 100 nM	< 100 nM	> 300 nM	< 100 nM
COc1cc2nccc(Oc3ccc(NC(=O)c4cccn(-c5ccc(F)cc5)c4=O)cc3)c2nc1OC [Compound 361, N-[4-[(6,7-dimethoxy-1,5-naphthyridin-4-yl)oxy]phenyl]-1-(4-fluorophenyl)-2-oxopyridine-3-carboxamide]	< 100 nM	< 100 nM	< 100 nM	< 100 nM
C=Cc1c(C)c(C(=O)Nc2ccc(Oc3ccnc4cc(OC)c(OC)nc34)c(F)c2)c(=O)n(-c2ccc(F)cc2)c1C [Compound 327, N-[4-[(6,7-Dimethoxy-1,5-naphthyridin-4-yl)oxy]-3-fluorophenyl]-5-ethenyl-1-(4-fluorophenyl)-4,6-dimethyl-2-oxopyridine-3-carboxamide]	< 100 nM	< 100 nM	< 100 nM	< 100 nM
COCCOc1nc2c(Oc3ccc(NC(=O)c4c(C)nc(C)c(-c5ccc(F)cc5C)c4O)cc3F)ccnc2cc1OC [Compound 208, N-[3-Fluoro-4-[[7-methoxy-6-(2-methoxyethoxy)-1,5-naphthyridin-4-yl]oxy]phenyl]-5-(4-fluoro-2-methylphenyl)-4-hydroxy-2,6-dimethylpyridine-3-carboxamide]	< 100 nM	< 100 nM	< 100 nM	< 100 nM
Cc1cc2nccc(Oc3ccc(NC(=O)c4c(C)nc(C)c(-c5ccc(F)cc5)c4O)cc3F)c2nc1F [Compound 445, N-[3-fluoro-4-[(6-fluoro-7-methyl-1,5-naphthyridin-4-yl)oxy]phenyl]-5-(4-fluorophenyl)-4-hydroxy-2,6-dimethylpyridine-3-carboxamide]	< 100 nM	< 100 nM	< 100 nM	< 100 nM

Second part, the compound after the results:

IC50 [1]	IC50 [2]	IC50 [3]	IC50 [4]	Compound
100 to 300 nM	< 100 nM	> 300 nM	< 100 nM	COc1cnc2c(Oc3ccc(NC(=O)c4c(C)c(C)nn(-c5ccc(F)cc5)c4=O)cc3F)ccnc2c1 [Compound 734, N-[3-fluoro-4-[(7-methoxy-1,5-naphthyridin-4-yl)oxy]phenyl]-2-(4-fluorophenyl)-5,6-dimethyl-3-oxopyridazine-4-carboxamide]
< 100 nM	< 100 nM	< 100 nM	< 100 nM	COc1cc2nccc(Oc3ccc(NC(=O)c4c(CO)nc(C)c(-c5ccc(F)cc5)c4O)cc3F)c2nc1OC [Compound 652, N-[4-[(6,7-dimethoxy-1,5-naphthyridin-4-yl)oxy]-3-fluorophenyl]-5-(4-fluorophenyl)-4-hydroxy-2-(hydroxymethyl)-6-methylpyridine-3-carboxamide]
< 100 nM	< 100 nM	< 100 nM	< 100 nM	CNC(=O)c1cc2nccc(Oc3cc(F)c(NC(=O)c4c(C)nc(C)c(-c5ccc(F)cc5C)c4O)cc3F)c2cc1C [Compound 752, 4-[2,5-difluoro-4-[[5-(4-fluoro-2-methylphenyl)-4-hydroxy-2,6-dimethylpyridine-3-carbonyl]amino]phenoxy]-N,6-dimethylquinoline-7-carboxamide]
< 100 nM	< 100 nM	< 100 nM	< 100 nM	COc1cc2nccc(Oc3ccc(NC(=O)c4c(C)ncc(-c5ccc(F)c(C)c5)c4O)cc3F)c2nc1OC [Compound 794, N-[4-[(6,7-dimethoxy-1,5-naphthyridin-4-yl)oxy]-3-fluorophenyl]-5-(4-fluoro-3-methylphenyl)-4-hydroxy-2-methylpyridine-3-carboxamide]

Source: patent US12371428B2 (Exelixis, Inc., priority 2019, dated 2025)
